Where “and” joins values, the source holds several entries; their conditions need not be identical. Identical values can stand only once. Like-named read-outs stand apart in the source and are kept apart here.
Experiments:
CDK12–cyclin K and DDB1 = biological target: T1, CDK12–cyclin K and DDB1 (Homo sapiens, UniProt Q16531+Q9NYV4, K965R); assay: TR-FRET ternary complex formation assay (compound titration); assay type: binding
T1 construct: His6–CDK12 (a.a. 713–1,052); full-length or beta-propeller B domain deletion (ΔBPB: a.a. 396–705 deleted) constructs of His6–DDB1ΔBPB, StrepII–Avi–DDB1, or His6–Spy–DDB1; made in house; host or cells: Trichoplusia ni High Five insect cells (baculovirus)
Procedure, shortened: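 Signal was the ratio of 520 nm to 490 nm fluorescence, measured after a 70 μs delay that reduced background.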

[1] = tested on: cyclin K–eGFP degradation reporter; assay: Cyclin K reporter stability analysis (dual-color cyclin K–eGFP reporter); assay type: cell-based, human; details: source data sheet correlations; read-out: DC50
Procedure, shortened: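 Values reflect cyclin K–eGFP levels after a 5 h exposure, expressed as the green-to-red fluorescence ratio and scaled to three vehicle-treated controls. Measurements came from HEK293T–Cas9 reporter cells by flow cytometry.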

HEK293T cells = assay: Drug sensitivity assay (CellTiter-Glo viability) with or without MLN4924 pretreatment; assay type: cell-based, human; details: Supplementary Table 2
Procedure, shortened: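 HEK293T–Cas9, 0.15 × 10^6 ml^−1; pretreat DMSO vs 100 nM MLN4924; drugs dispensed after 2 h; 3 d exposure; CellTiter-Glo; viability vs DMSO control.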

CDK12–cyclin K = CDK12–cyclin K (Homo sapiens, UniProt Q9NYV4); assay: Lanthascreen kinase binding assay, CDK12; details: for Lanthascreen raw signal, sheet CDK12: series r37, duplicates
Experimental: (§1) Lanthascreen experiments were performed using commercially available reagents (Thermo Fisher) and according to the manufacturer’s instructions.

CDK9–cyclin T = biological target: T2, CDK9–cyclin T (Homo sapiens, UniProt P50750); assay: Lanthascreen kinase binding assay, CDK9; details: for Lanthascreen TR-FRET signal (raw ratio), sheet CDK9: third titration set (r25), duplicates
T2 construct: purchased Thermo Fisher
Experimental: as §1

CDK2–cyclin A = biological target: T3, CDK2–cyclin A (Homo sapiens, UniProt P24941); assay: Lanthascreen kinase binding assay, CDK2; details: for Lanthascreen signal, sheet CDK2: raw replicates, experiment r36-r46
T3 construct: purchased Thermo Fisher
Experimental: as §1

Chain of CDK12–cyclin K (Q9NYV4 713-1052): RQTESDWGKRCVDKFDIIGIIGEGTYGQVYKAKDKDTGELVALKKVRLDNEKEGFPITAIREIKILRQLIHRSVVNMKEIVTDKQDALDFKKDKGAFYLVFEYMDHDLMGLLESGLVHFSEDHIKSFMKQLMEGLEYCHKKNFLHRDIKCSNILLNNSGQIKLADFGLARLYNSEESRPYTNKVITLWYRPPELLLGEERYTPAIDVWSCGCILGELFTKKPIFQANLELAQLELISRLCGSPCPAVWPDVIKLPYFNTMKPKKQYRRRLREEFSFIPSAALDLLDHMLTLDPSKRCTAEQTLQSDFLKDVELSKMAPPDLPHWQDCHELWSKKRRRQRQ
Chain of CDK12–cyclin K (O75909 1-267 partner limits assumed): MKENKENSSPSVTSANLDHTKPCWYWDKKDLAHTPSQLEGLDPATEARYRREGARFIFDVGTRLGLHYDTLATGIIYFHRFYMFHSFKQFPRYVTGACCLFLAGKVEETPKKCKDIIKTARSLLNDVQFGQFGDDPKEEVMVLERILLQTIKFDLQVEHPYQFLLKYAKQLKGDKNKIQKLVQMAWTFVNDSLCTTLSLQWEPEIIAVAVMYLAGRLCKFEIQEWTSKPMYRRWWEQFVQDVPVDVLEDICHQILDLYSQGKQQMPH
T2 sequence (P50750 whole entry): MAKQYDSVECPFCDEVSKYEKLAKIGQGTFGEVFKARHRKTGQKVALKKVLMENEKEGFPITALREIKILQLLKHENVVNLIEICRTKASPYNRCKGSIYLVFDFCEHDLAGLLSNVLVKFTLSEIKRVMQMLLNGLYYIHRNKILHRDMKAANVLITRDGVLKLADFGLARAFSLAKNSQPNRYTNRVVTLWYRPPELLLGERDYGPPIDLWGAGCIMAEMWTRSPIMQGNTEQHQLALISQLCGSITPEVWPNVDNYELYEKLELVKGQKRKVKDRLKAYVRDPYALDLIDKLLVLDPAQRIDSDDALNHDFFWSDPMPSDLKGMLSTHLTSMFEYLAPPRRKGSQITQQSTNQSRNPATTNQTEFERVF
T2 sequence (O60563 whole entry partner): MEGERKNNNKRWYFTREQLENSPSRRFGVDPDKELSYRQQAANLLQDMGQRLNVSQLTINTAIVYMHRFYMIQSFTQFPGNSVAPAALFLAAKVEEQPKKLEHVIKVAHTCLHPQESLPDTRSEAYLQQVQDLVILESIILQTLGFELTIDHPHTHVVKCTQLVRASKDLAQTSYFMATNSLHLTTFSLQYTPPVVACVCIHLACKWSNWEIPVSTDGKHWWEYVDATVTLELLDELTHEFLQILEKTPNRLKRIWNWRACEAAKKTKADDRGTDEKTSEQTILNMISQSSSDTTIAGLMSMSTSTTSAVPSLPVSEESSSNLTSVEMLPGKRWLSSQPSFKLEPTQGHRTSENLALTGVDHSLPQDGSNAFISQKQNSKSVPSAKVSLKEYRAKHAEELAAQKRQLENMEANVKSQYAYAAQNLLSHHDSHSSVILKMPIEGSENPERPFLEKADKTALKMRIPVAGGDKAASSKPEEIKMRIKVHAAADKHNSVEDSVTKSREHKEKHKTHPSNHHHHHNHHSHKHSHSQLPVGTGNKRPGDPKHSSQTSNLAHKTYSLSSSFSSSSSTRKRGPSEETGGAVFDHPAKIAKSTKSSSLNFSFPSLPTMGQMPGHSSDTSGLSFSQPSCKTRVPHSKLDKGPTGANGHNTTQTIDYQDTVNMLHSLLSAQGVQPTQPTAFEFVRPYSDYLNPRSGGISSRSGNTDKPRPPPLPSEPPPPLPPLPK
T1 sequence (Q9NYV4 713-1052 K965R): as the sequence (Q9NYV4 713-1052) above, with K253R counted along it
T1 sequence (O75909 1-267 partner): as the sequence (O75909 1-267 partner limits assumed) above
T1 sequence (Q16531 whole entry): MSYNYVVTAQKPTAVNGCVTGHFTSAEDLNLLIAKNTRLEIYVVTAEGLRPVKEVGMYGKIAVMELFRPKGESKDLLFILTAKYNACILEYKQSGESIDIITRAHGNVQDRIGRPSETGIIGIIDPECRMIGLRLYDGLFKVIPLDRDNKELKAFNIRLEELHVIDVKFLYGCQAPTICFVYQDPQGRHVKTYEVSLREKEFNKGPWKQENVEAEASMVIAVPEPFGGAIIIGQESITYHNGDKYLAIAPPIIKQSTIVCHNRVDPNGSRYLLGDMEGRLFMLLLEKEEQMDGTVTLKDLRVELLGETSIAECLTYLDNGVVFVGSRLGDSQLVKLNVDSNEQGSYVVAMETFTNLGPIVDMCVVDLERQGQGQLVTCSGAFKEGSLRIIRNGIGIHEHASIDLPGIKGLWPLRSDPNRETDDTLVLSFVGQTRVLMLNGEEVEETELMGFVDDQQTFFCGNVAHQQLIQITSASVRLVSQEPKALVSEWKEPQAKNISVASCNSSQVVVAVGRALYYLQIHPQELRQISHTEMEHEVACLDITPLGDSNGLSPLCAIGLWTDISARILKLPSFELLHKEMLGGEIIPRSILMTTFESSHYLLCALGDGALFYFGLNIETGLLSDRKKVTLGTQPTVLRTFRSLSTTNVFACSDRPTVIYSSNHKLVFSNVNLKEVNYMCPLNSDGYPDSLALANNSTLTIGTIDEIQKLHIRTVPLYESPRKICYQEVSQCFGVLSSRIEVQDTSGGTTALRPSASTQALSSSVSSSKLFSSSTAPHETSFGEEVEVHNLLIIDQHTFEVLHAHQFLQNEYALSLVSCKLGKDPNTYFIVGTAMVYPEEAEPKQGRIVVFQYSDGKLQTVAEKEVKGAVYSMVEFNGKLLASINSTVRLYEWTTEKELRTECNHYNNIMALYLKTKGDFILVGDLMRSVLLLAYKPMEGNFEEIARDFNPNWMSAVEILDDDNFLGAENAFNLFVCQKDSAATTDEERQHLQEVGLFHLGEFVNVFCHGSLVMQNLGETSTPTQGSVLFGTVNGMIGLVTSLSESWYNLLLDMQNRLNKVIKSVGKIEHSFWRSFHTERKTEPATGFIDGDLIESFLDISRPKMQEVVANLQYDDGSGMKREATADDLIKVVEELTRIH

CC(C)n1cnc2c(NCc3ccc(-c4ccccn4)cc3)nc(N3CCOCC3)nc21 [DS19]
TR-FRET signal at compound concentration 0.468 nM (CDK12–cyclin K and DDB1; raw replicate titration data): 0.2796 and 0.2825 and 0.2274 and 0.2285 | TR-FRET signal at compound concentration 0.468 nM (CDK12–cyclin K and DDB1; raw titration data): 0.2796 and 0.2825 and 0.2274 and 0.2285 | TR-FRET signal at compound concentration 2.16 nM (CDK12–cyclin K and DDB1; raw replicate titration data): 0.4207 and 0.4231 and 0.3525 and 0.3569 | TR-FRET signal at compound concentration 2.16 nM (CDK12–cyclin K and DDB1; raw titration data): 0.4207 and 0.4231 and 0.3525 and 0.3569 | TR-FRET signal at compound concentration 3.6 nM (CDK12–cyclin K and DDB1; raw replicate titration data): 0.7048 and 0.756 and 0.6232 and 0.6327 | TR-FRET signal at compound concentration 3.6 nM (CDK12–cyclin K and DDB1; raw titration data): 0.7048 and 0.756 and 0.6232 and 0.6327 | TR-FRET signal at compound concentration 7.92001 nM (CDK12–cyclin K and DDB1; raw replicate titration data): 1.442 and 1.475 and 1.209 and 1.266 | TR-FRET signal at compound concentration 7.92001 nM (CDK12–cyclin K and DDB1; raw titration data): 1.442 and 1.475 and 1.209 and 1.266 | TR-FRET signal at compound concentration 15.84 nM (CDK12–cyclin K and DDB1; raw replicate titration data): 2.559 and 2.574 and 2.155 and 2.284 | TR-FRET signal at compound concentration 15.84 nM (CDK12–cyclin K and DDB1; raw titration data): 2.559 and 2.574 and 2.155 and 2.284 | TR-FRET signal at compound concentration 30.96 nM (CDK12–cyclin K and DDB1; raw replicate titration data): 3.476 and 3.44 and 3.283 and 3.355 | TR-FRET signal at compound concentration 30.96 nM (CDK12–cyclin K and DDB1; raw titration data): 3.476 and 3.44 and 3.283 and 3.355 | TR-FRET signal at compound concentration 62.6401 nM (CDK12–cyclin K and DDB1; raw replicate titration data): 3.895 and 3.93 and 3.8348 and 3.842 | TR-FRET signal at compound concentration 62.6401 nM (CDK12–cyclin K and DDB1; raw titration data): 3.895 and 3.93 and 3.8348 and 3.842 | TR-FRET signal at compound concentration 125.28 nM (CDK12–cyclin K and DDB1; raw replicate titration data): 4.03 and 4.166 and 4.089 and 4.0346 | TR-FRET signal at compound concentration 125.28 nM (CDK12–cyclin K and DDB1; raw titration data): 4.03 and 4.166 and 4.089 and 4.0346 | TR-FRET signal at compound concentration 244.8 nM (CDK12–cyclin K and DDB1; raw replicate titration data): 3.953 and 4.0607 and 4.092 and 4.114 | TR-FRET signal at compound concentration 244.8 nM (CDK12–cyclin K and DDB1; raw titration data): 3.953 and 4.0607 and 4.092 and 4.114 | TR-FRET signal at compound concentration 993.601 nM (CDK12–cyclin K and DDB1; raw replicate titration data): 4.102 and 4.235 and 4.304 and 4.258 | TR-FRET signal at compound concentration 993.601 nM (CDK12–cyclin K and DDB1; raw titration data): 4.102 and 4.235 and 4.304 and 4.258 | TR-FRET signal at compound concentration 2001.6 nM (CDK12–cyclin K and DDB1; raw replicate titration data): 4.005 and 4.144 and 4.249 and 4.271 | TR-FRET signal at compound concentration 2001.6 nM (CDK12–cyclin K and DDB1; raw titration data): 4.005 and 4.144 and 4.249 and 4.271 | EC50 (CDK12–cyclin K and DDB1; in vitro complex formation, 50 nM CDK12–cyclin K, 100 nM DDB1, text and figures, read-out: TR-FRET EC50): 14 ± 0.3 nM | EC50 (CDK12–cyclin K and DDB1; sheet MOESM7, read-out: log TR-FRET EC50 (converted)): 14 nM | DC50 [1]: 62 nM | EC50 (HEK293T cells; Homo sapiens, HEK-293T, HEK293T viability, 72 h, compound alone, read-out: Cellular assays EC50): 203 nM | Toxicity rescue (HEK293T cells; MLN4924-mediated cytotoxicity rescue, 10 µM used where n.d.): 300% | IC50 (CDK12–cyclin K; Supplementary Table 2, read-out: Lanthascreen IC50 [nM] CDK12): 163 nM | Lanthascreen raw signal, sheet CDK12 (CDK12–cyclin K; compound 0.038147 nM): 0.01386 and 0.01388 | Lanthascreen raw signal, sheet CDK12 (CDK12–cyclin K; compound 0.152588 nM): 0.01386 and 0.01359 | Lanthascreen raw signal, sheet CDK12 (CDK12–cyclin K; compound 0.610352 nM): 0.01429 and 0.01468 | Lanthascreen raw signal, sheet CDK12 (CDK12–cyclin K; compound 9.76563 nM): 0.01424 and 0.01408 | Lanthascreen raw signal, sheet CDK12 (CDK12–cyclin K; compound 39.0625 nM): 0.0128 and 0.01286 | Lanthascreen raw signal, sheet CDK12 (CDK12–cyclin K; compound 156.25 nM): 0.01155 and 0.01121 | Lanthascreen raw signal, sheet CDK12 (CDK12–cyclin K; compound 625 nM): 0.01099 and 0.009814 | Lanthascreen raw signal, sheet CDK12 (CDK12–cyclin K; compound 2500 nM): 0.009116 and 0.009896 | Lanthascreen raw signal, sheet CDK12 (CDK12–cyclin K; compound 10000 nM): 0.008961 and 0.008941 | IC50 (CDK9–cyclin T; Supplementary Table 2, read-out: Lanthascreen IC50 [nM] CDK9): 143 nM | Lanthascreen TR-FRET signal (raw ratio), sheet CDK9 (CDK9–cyclin T; compound 0.038147 nM): 0.02142 and 0.0184 | Lanthascreen TR-FRET signal (raw ratio), sheet CDK9 (CDK9–cyclin T; compound 0.152588 nM): 0.02078 and 0.0198 | Lanthascreen TR-FRET signal (raw ratio), sheet CDK9 (CDK9–cyclin T; compound 0.610352 nM): 0.02132 and 0.01977 | Lanthascreen TR-FRET signal (raw ratio), sheet CDK9 (CDK9–cyclin T; compound 9.76563 nM): 0.02157 and 0.01927 | Lanthascreen TR-FRET signal (raw ratio), sheet CDK9 (CDK9–cyclin T; compound 39.0625 nM): 0.01848 and 0.01637 | Lanthascreen TR-FRET signal (raw ratio), sheet CDK9 (CDK9–cyclin T; compound 156.25 nM): 0.01444 and 0.01311 | Lanthascreen TR-FRET signal (raw ratio), sheet CDK9 (CDK9–cyclin T; compound 625 nM): 0.01104 and 0.009432 | Lanthascreen TR-FRET signal (raw ratio), sheet CDK9 (CDK9–cyclin T; compound 2500 nM): 0.009751 and 0.009192 | Lanthascreen TR-FRET signal (raw ratio), sheet CDK9 (CDK9–cyclin T; compound 10000 nM): 0.008375 and 0.006377 | Lanthascreen signal, sheet CDK2 (CDK2–cyclin A; Compound 0.038147 nM): 0.0135 and 0.01393 | Lanthascreen signal, sheet CDK2 (CDK2–cyclin A; Compound 0.152588 nM): 0.0137 and 0.01436 | Lanthascreen signal, sheet CDK2 (CDK2–cyclin A; Compound 0.610352 nM): 0.01422 and 0.01354 | Lanthascreen signal, sheet CDK2 (CDK2–cyclin A; Compound 9.76563 nM): 0.01407 and 0.01385 | Lanthascreen signal, sheet CDK2 (CDK2–cyclin A; Compound 39.0625 nM): 0.01288 and 0.01319 | Lanthascreen signal, sheet CDK2 (CDK2–cyclin A; Compound 156.25 nM): 0.01128 and 0.01245 | Lanthascreen signal, sheet CDK2 (CDK2–cyclin A; Compound 625 nM): 0.01025 and 0.01024 | Lanthascreen signal, sheet CDK2 (CDK2–cyclin A; Compound 2500 nM): 0.009848 and 0.009236 | Lanthascreen signal, sheet CDK2 (CDK2–cyclin A; Compound 10000 nM): 0.00863 and 0.008753 | IC50 (CDK2–cyclin A; Supplementary Table 2, read-out: Lanthascreen IC50 [nM] CDK2): 239 nM
